Measurements: ChEMBL document CHEMBL2429768, “Eco-friendly synthesis and antimicrobial activities of substituted-5-(1H-indol-3-yl)methylene)-2,2-dimethyl-1,3-dioxane-4,6-dione derivatives” (2013)
Values after ≈ are worked out from the molar mass of the structure shown.

Assays:
Assay type in all cases: functional
Fusarium oxysporum [1] = assay: Antifungal activity against Fusarium oxysporum after 72 hrs by agar well diffusion method
Aspergillus niger [2] = assay: Antifungal activity against Aspergillus niger at 500 ug/ml after 72 hrs by agar well diffusion method
Rhizoctonia solani [3] = assay: Antifungal activity against Rhizoctonia solani at 500 ug/ml after 72 hrs by agar well diffusion method
Fusarium oxysporum [4] = assay: Antifungal activity against Fusarium oxysporum at 200 ug/ml after 72 hrs by agar well diffusion method
Aspergillus niger [5] = assay: Antifungal activity against Aspergillus niger after 72 hrs by agar well diffusion method
Aspergillus flavus [6] = assay: Antifungal activity against Aspergillus flavus at 500 ug/ml after 72 hrs by agar well diffusion method
Aspergillus niger [7] = assay: Antifungal activity against Aspergillus niger at 50 ug/ml after 72 hrs by agar well diffusion method
Aspergillus flavus [8] = assay: Antifungal activity against Aspergillus flavus at 200 ug/ml after 72 hrs by agar well diffusion method
Aspergillus flavus [9] = assay: Antifungal activity against Aspergillus flavus at 100 ug/ml after 72 hrs by agar well diffusion method
Fusarium oxysporum [10] = assay: Antifungal activity against Fusarium oxysporum at 50 ug/ml after 72 hrs by agar well diffusion method
Aspergillus flavus [11] = assay: Antifungal activity against Aspergillus flavus at 300 ug/ml after 72 hrs by agar well diffusion method
Rhizoctonia solani [12] = assay: Antifungal activity against Rhizoctonia solani after 72 hrs by agar well diffusion method
Aspergillus niger [13] = assay: Antifungal activity against Aspergillus niger at 100 ug/ml after 72 hrs by agar well diffusion method
Fusarium oxysporum [14] = assay: Antifungal activity against Fusarium oxysporum at 300 ug/ml after 72 hrs by agar well diffusion method
Fusarium oxysporum [15] = assay: Antifungal activity against Fusarium oxysporum at 500 ug/ml after 72 hrs by agar well diffusion method
Rhizoctonia solani [16] = assay: Antifungal activity against Rhizoctonia solani at 50 ug/ml after 72 hrs by agar well diffusion method
Rhizoctonia solani [17] = assay: Antifungal activity against Rhizoctonia solani at 100 ug/ml after 72 hrs by agar well diffusion method
Aspergillus flavus [18] = assay: Antifungal activity against Aspergillus flavus at 50 ug/ml after 72 hrs by agar well diffusion method
Fusarium oxysporum [19] = assay: Antifungal activity against Fusarium oxysporum at 100 ug/ml after 72 hrs by agar well diffusion method
Aspergillus niger [20] = assay: Antifungal activity against Aspergillus niger at 200 ug/ml after 72 hrs by agar well diffusion method
Aspergillus flavus [21] = assay: Antifungal activity against Aspergillus flavus after 72 hrs by agar well diffusion method
Rhizoctonia solani [22] = assay: Antifungal activity against Rhizoctonia solani at 200 ug/ml after 72 hrs by agar well diffusion method
Aspergillus niger [23] = assay: Antifungal activity against Aspergillus niger at 300 ug/ml after 72 hrs by agar well diffusion method
Rhizoctonia solani [24] = assay: Antifungal activity against Rhizoctonia solani at 300 ug/ml after 72 hrs by agar well diffusion method
Bacillus subtilis [25] = assay: Antibacterial activity against Bacillus subtilis at 200 ug/ml after 24 hrs by agar well diffusion method; conditions: read-out: DIZ
Escherichia coli [26] = assay: Antibacterial activity against Escherichia coli ATCC 8739 at 500 ug/ml after 24 hrs by agar well diffusion method; conditions: ATCC 8739, 24 h, read-out: DIZ
Staphylococcus aureus [27] = assay: Antibacterial activity against Staphylococcus aureus ATCC 6538 at 300 ug/ml after 24 hrs by agar well diffusion method; conditions: ATCC 6538, 24 h, read-out: DIZ
Staphylococcus aureus [28] = assay: Antibacterial activity against Staphylococcus aureus ATCC 6538 after 24 hrs by agar well diffusion method; conditions: ATCC 6538, 24 h
Staphylococcus aureus [29] = assay: Antibacterial activity against Staphylococcus aureus ATCC 6538 at 50 ug/ml after 24 hrs by agar well diffusion method; conditions: ATCC 6538, 24 h, read-out: DIZ
Klebsiella pneumoniae [30] = assay: Antibacterial activity against Klebsiella pneumoniae at 100 ug/ml after 24 hrs by agar well diffusion method; conditions: read-out: DIZ
Bacillus subtilis [31] = assay: Antibacterial activity against Bacillus subtilis at 300 ug/ml after 24 hrs by agar well diffusion method; conditions: read-out: DIZ
Klebsiella pneumoniae [32] = assay: Antibacterial activity against Klebsiella pneumoniae at 500 ug/ml after 24 hrs by agar well diffusion method; conditions: read-out: DIZ
Escherichia coli [33] = assay: Antibacterial activity against Escherichia coli ATCC 8739 at 200 ug/ml after 24 hrs by agar well diffusion method; conditions: ATCC 8739, 24 h, read-out: DIZ
Klebsiella pneumoniae [34] = assay: Antibacterial activity against Klebsiella pneumoniae after 24 hrs by agar well diffusion method
Bacillus subtilis [35] = assay: Antibacterial activity against Bacillus subtilis at 50 ug/ml after 24 hrs by agar well diffusion method; conditions: read-out: DIZ
Klebsiella pneumoniae [36] = assay: Antibacterial activity against Klebsiella pneumoniae at 50 ug/ml after 24 hrs by agar well diffusion method; conditions: read-out: DIZ
Bacillus subtilis [37] = assay: Antibacterial activity against Bacillus subtilis at 100 ug/ml after 24 hrs by agar well diffusion method; conditions: read-out: DIZ
Staphylococcus aureus [38] = assay: Antibacterial activity against Staphylococcus aureus ATCC 6538 at 500 ug/ml after 24 hrs by agar well diffusion method; conditions: ATCC 6538, 24 h, read-out: DIZ
Staphylococcus aureus [39] = assay: Antibacterial activity against Staphylococcus aureus ATCC 6538 at 200 ug/ml after 24 hrs by agar well diffusion method; conditions: ATCC 6538, 24 h, read-out: DIZ
Klebsiella pneumoniae [40] = assay: Antibacterial activity against Klebsiella pneumoniae at 300 ug/ml after 24 hrs by agar well diffusion method; conditions: read-out: DIZ
Bacillus subtilis [41] = assay: Antibacterial activity against Bacillus subtilis after 24 hrs by agar well diffusion method
Escherichia coli [42] = assay: Antibacterial activity against Escherichia coli ATCC 8739 at 50 ug/ml after 24 hrs by agar well diffusion method; conditions: ATCC 8739, 24 h, read-out: DIZ
Escherichia coli [43] = assay: Antibacterial activity against Escherichia coli ATCC 8739 after 24 hrs by agar well diffusion method; conditions: ATCC 8739, 24 h
Escherichia coli [44] = assay: Antibacterial activity against Escherichia coli ATCC 8739 at 100 ug/ml after 24 hrs by agar well diffusion method; conditions: ATCC 8739, 24 h, read-out: DIZ
Escherichia coli [45] = assay: Antibacterial activity against Escherichia coli ATCC 8739 at 300 ug/ml after 24 hrs by agar well diffusion method; conditions: ATCC 8739, 24 h, read-out: DIZ
Bacillus subtilis [46] = assay: Antibacterial activity against Bacillus subtilis at 500 ug/ml after 24 hrs by agar well diffusion method; conditions: read-out: DIZ
Klebsiella pneumoniae [47] = assay: Antibacterial activity against Klebsiella pneumoniae at 200 ug/ml after 24 hrs by agar well diffusion method; conditions: read-out: DIZ
Staphylococcus aureus [48] = assay: Antibacterial activity against Staphylococcus aureus ATCC 6538 at 100 ug/ml after 24 hrs by agar well diffusion method; conditions: ATCC 6538, 24 h, read-out: DIZ

In the case of NYSTATIN, the MIC (Fusarium oxysporum [1]) was 15 µg/mL, the inhibition zone (IZ) (Aspergillus niger [2]) was 34 mm and the inhibition zone (IZ) (Rhizoctonia solani [3]) was 38 mm. The inhibition zone (IZ) (Fusarium oxysporum [4]) was 21 mm, the MIC (Aspergillus niger [5]) was 20 µg/mL and the inhibition zone (IZ) (Aspergillus flavus [6]) was 32 mm. It also gave an inhibition zone (IZ) (Aspergillus niger [7]) of 11.2 mm, an inhibition zone (IZ) (Aspergillus flavus [8]) of 16 mm and an inhibition zone (IZ) (Aspergillus flavus [9]) of 13 mm. It also gave an inhibition zone (IZ) (Fusarium oxysporum [10]) of 15 mm, an inhibition zone (IZ) (Aspergillus flavus [11]) of 22 mm and an MIC (Rhizoctonia solani [12]) of 15 µg/mL. The inhibition zone (IZ) (Aspergillus niger [13]) was 14 mm, the inhibition zone (IZ) (Fusarium oxysporum [14]) was 29 mm and the inhibition zone (IZ) (Fusarium oxysporum [15]) was 37 mm. The inhibition zone (IZ) (Rhizoctonia solani [16]) was 16 mm, the inhibition zone (IZ) (Rhizoctonia solani [17]) was 20 mm and the inhibition zone (IZ) (Aspergillus flavus [18]) was 11 mm. For the same compound, the inhibition zone (IZ) (Fusarium oxysporum [19]) was 18 mm, the inhibition zone (IZ) (Aspergillus niger [20]) was 16.6 mm and the MIC (Aspergillus flavus [21]) was 20 µg/mL. It also gave an inhibition zone (IZ) (Rhizoctonia solani [22]) of 22 mm, an inhibition zone (IZ) (Aspergillus niger [23]) of 23 mm and an inhibition zone (IZ) (Rhizoctonia solani [24]) of 30 mm.
Work on `CN[C@@H]1[C@H](O[C@H]2[C@H](O[C@H]3[C@H](O)[C@@H](O)[C@H](N=C(N)N)[C@@H](O)[C@@H]3N=C(N)N)O[C@@H](C)[C@]2(O)C=O)O[C@@H](CO)[C@H](O)[C@H]1O` [STREPTOMYCIN] yielded a zone of inhibition at 200 µg/mL (Bacillus subtilis [25]) of 17 mm, a zone of inhibition at 500 µg/mL (Escherichia coli [26]) of 36 mm and a zone of inhibition at 300 µg/mL (Staphylococcus aureus [27]) of 22 mm. It also gave an MIC (Staphylococcus aureus [28]) of 10 µg/mL (≈ 17.2 µM), a zone of inhibition at 50 µg/mL (Staphylococcus aureus [29]) of 10 mm and a zone of inhibition at 100 µg/mL (Klebsiella pneumoniae [30]) of 18 mm. It also gave a zone of inhibition at 300 µg/mL (Bacillus subtilis [31]) of 20 mm, a zone of inhibition at 500 µg/mL (Klebsiella pneumoniae [32]) of 37 mm and a zone of inhibition at 200 µg/mL (Escherichia coli [33]) of 23 mm. For the same compound, the MIC (Klebsiella pneumoniae [34]) was 5 µg/mL (≈ 8.6 µM), the zone of inhibition at 50 µg/mL (Bacillus subtilis [35]) was 9 mm and the zone of inhibition at 50 µg/mL (Klebsiella pneumoniae [36]) was 13 mm. It also gave a zone of inhibition at 100 µg/mL (Bacillus subtilis [37]) of 14 mm, a zone of inhibition at 500 µg/mL (Staphylococcus aureus [38]) of 31 mm and a zone of inhibition at 200 µg/mL (Staphylococcus aureus [39]) of 19 mm. The zone of inhibition at 300 µg/mL (Klebsiella pneumoniae [40]) was 28 mm, the MIC (Bacillus subtilis [41]) was 20 µg/mL (≈ 34.4 µM) and the zone of inhibition at 50 µg/mL (Escherichia coli [42]) was 12 mm. The MIC (Escherichia coli [43]) was 5 µg/mL (≈ 8.6 µM), the zone of inhibition at 100 µg/mL (Escherichia coli [44]) was 17 mm and the zone of inhibition at 300 µg/mL (Escherichia coli [45]) was 26 mm. It also gave a zone of inhibition at 500 µg/mL (Bacillus subtilis [46]) of 28 mm, a zone of inhibition at 200 µg/mL (Klebsiella pneumoniae [47]) of 24 mm and a zone of inhibition at 100 µg/mL (Staphylococcus aureus [48]) of 15 mm.
